{"source": "patent US20170000784A1", "about": "“Autophagy Inhibitors” (priority 2013, published 2017)", "key": {"[1]": {"tested_on": "Tumor cell lines (H292, HCT116, A375, HCC1569, A498, N87, UACC1093, and UACC647)", "experiment": "Single agent tumor cell viability (ATP luminescence, 72 hours)", "type": "cell-based", "conditions": "cell lines tested; 72 hours exposure; FIGS. 1A, 1B", "description": "(§1) Tumor cell lines (H292, HCT116, A375, HCC1569, A498, N87, UACC1093, and UACC647) were cultured in RPMI 1640 supplemented with 5% fetal bovine serum and housed in a 5% CO2 Incubator at 37° C.\n(§2) For single agent IC50 determination, cells were plated on a 96 well microplate and allowed 24 hours to adhere. Drugs were administered to the drug plate by the following: compound stock solutions (10 mM) were added to a drug plate where a 1:10 dilution was performed. Following the dilutions, 2 μl of test compound was transferred to the corresponding wells in the cell-containing 96-well plate with 198 μl of growth media. The compounds were tested over a range of 0.1 pM-100 μM for 72 hours. Following 72 hours of continuous exposure cell viability was determined by measuring the ATP activity using a commercially available cell viability assay kit. Luminescence intensity was used to relative drug activity compared to control wells and used to graphically determine the IC50."}, "[2]": {"tested_on": "PLX-4032 resistant melanoma cell lines UACC1093 and UACC647", "experiment": "Combination interaction tumor cell viability (ATP luminescence, 72 hours)", "type": "cell-based", "description": "as §1\nas §2, with “combination interaction experiments,” for “single agent IC50 determination,”, “(20 mM) or combination agent stock solutions (20” for “(10”, “each VT-062 and standard agent” for “test compound”, “196” for “198”, “compound and combination agent was concurrently” for “compounds were”, “IC50 of combination.” for “IC50.”"}, "[3]": {"tested_on": "A375 Human melanoma tumor cells", "experiment": "Human tumor xenograft study", "type": "in vivo", "conditions": "A375 xenograft in female mice; orally, daily for 21 days; after 25 days", "description": "Female mice were inoculated subcutaneously in the right flank with 0.1 ml of a 50% RPMI/50% Matrigel™ (BD Biosciences, Bedford, Mass.) mixture containing a suspension of A375 Human melanoma tumor cells (approximately 5×10^6 cells/mouse).\nWhen tumor reached approximately 130 mg, mice were randomized into treatment groups. Body weights were recorded when the mice were randomized and were taken twice per week (on Study Days 3 and 7 for each cycle) thereafter in conjunction with tumor measurements. Treatment began on the day of randomization. Example 10 was delivered orally in a vehicle consisting of 5% DMA, 10% propylene glycol, 20% PEG 400, and 65% sterile water. Example 10 was administered daily for 21 days."}, "A375 melanoma cell line": {"tested_on": "A375 melanoma cell line", "experiment": "Cell viability (IC50) screen, CellTiter Glo, A375", "type": "cell-based", "conditions": "Homo sapiens, A-375; A375 cell viability, CellTiter Glo, 48 hours; read-out: IC50", "description": "(§3) U2OS cells were seeded at 500 cells per well in 5A McCoy's with 10% FBS in 96-well clear bottom, black-walled tissue culture plates. All melanoma cell lines (A375, UACC-91, UACC-257, UACC-502, UACC-903, UACC-1308, UACC-1940, UACC-2534, and UACC-3291) were seeded at 5,000 cells per well in RPMI 1640 with 10% FBS in 96-well clear bottom, black-walled tissue culture plates. After 24 hour incubation, cells were treated with VATG compounds in triplicate with a 10-point half log dose response from […] for 24 and 48 hours. Medium was removed and 2× CellTiter Glo (Promega, G7571) reagent mixed 1:1 with Opti-MEM (Invitrogen, 31985062) was added at 100 μL per well and incubated at room temperature for 15 minutes while rocking. 75 μL per well was moved to a white-walled 96-well plate and luminescence quantified using the 96 LUM program on an EnVision plate reader (PerkinElmer) and exported for analysis. All triplicate data points were averaged and luminescent readings for each treatment were normalized to vehicle control for change in viability. Dose response curves were input into SigmaPlot for IC50 calculations (Systat Software Inc)."}, "[4]": {"tested_on": "UACC-91 melanoma cell line", "experiment": "Cell viability (IC50) screen, CellTiter Glo, UACC-91", "type": "cell-based", "conditions": "Homo sapiens; UACC-91 cell viability, CellTiter Glo; read-out: IC50", "description": "as §3"}, "[5]": {"tested_on": "UACC-257 melanoma cell line", "experiment": "Cell viability (IC50) screen, CellTiter Glo, UACC-257", "type": "cell-based", "conditions": "Homo sapiens; UACC-257 cell viability, CellTiter Glo; read-out: IC50", "description": "as §3"}, "[6]": {"tested_on": "UACC-502 melanoma cell line", "experiment": "Cell viability (IC50) screen, CellTiter Glo, UACC-502", "type": "cell-based", "conditions": "Homo sapiens; UACC-502 cell viability, CellTiter Glo; read-out: IC50", "description": "as §3"}, "[7]": {"tested_on": "UACC-903 melanoma cell line", "experiment": "Cell viability (IC50) screen, CellTiter Glo, UACC-903", "type": "cell-based", "conditions": "Homo sapiens; UACC-903 cell viability, CellTiter Glo; read-out: IC50", "description": "as §3"}, "[8]": {"tested_on": "UACC-1308 melanoma cell line", "experiment": "Cell viability (IC50) screen, CellTiter Glo, UACC-1308", "type": "cell-based", "conditions": "Homo sapiens; UACC-1308 cell viability, CellTiter Glo; read-out: IC50", "description": "as §3"}, "[9]": {"tested_on": "UACC-1940 melanoma cell line", "experiment": "Cell viability (IC50) screen, CellTiter Glo, UACC-1940", "type": "cell-based", "conditions": "Homo sapiens; UACC-1940 cell viability, CellTiter Glo; read-out: IC50", "description": "as §3"}, "[10]": {"tested_on": "UACC-2534 melanoma cell line", "experiment": "Cell viability (IC50) screen, CellTiter Glo, UACC-2534", "type": "cell-based", "conditions": "Homo sapiens; UACC-2534 cell viability, CellTiter Glo; read-out: IC50", "description": "as §3"}, "[11]": {"tested_on": "UACC-3291 melanoma cell line", "experiment": "Cell viability (IC50) screen, CellTiter Glo, UACC-3291", "type": "cell-based", "conditions": "Homo sapiens; UACC-3291 cell viability, CellTiter Glo; read-out: IC50", "description": "as §3"}, "[12]": {"tested_on": "phospho-ERK1/2 and LC3-II in A375 cells", "experiment": "Western blot of A375 cells treated with PLX-4032 with and without autophagy inhibitors", "type": "cell-based, human", "description": "For Western blotting, U2OS cells were seeded in 10 cm plates in 5A McCoy's with 10% FBS at 1×10^6 cells per plate. All melanoma lines were seeded in 10 cm plates in RPMI 1640 with 10% FBS at 1×10^6 cells per plate. After 24 hours, cells were treated with CQ, QN, Example 27, or Example 7 in a dose response of 0.3 μM, 1 μM, 3 μM, 10 μM, and 30 μM for three hours. A375 were treated with PLX-4032 (Selleck Chemicals, S1267) at 10 nM, 100 nM, and 1 μM for three hours with and without CQ, QN, Example 7, and Example 27 at 3 μM and 30 μM. After treatment, cells were lysed [10 mM KPO4, 1 mM EDTA, 10 mM MgCl2, 5 mM EGTA, 50 mM bis-glycerophosphate, 0.5% NP40, 0.1% Brij35, 0.1% sodium deoxycholate, 1 mM NaVO4, 5 mM NaF, 2 mM DTT, and complete protease inhibitors (Sigma, P8340-5 mL)] and 50 μg of protein was resolved by SDS-PAGE. Proteins were transferred to PVDF membranes and probed with primary antibodies [LC3 (Sigma, L7543-200UL), anti-α-tubulin (Sigma, T6199), cathepsin B (Santa Cruz, sc-13985)] for 16 hours at 4° C. followed by a secondary antibody [HRP-linked rabbit or mouse IgG (GE Healthcare, NA934 or NA931) or Odyssey IRDye 680CW Goat anti-rabbit IgG (LI-COR, 926-32221) or IRDye 800CW Goat anti-mouse IgG (LI-COR, 926-32210)] for 1 hour at room temperature. Proteins were detected with enhanced chemiluminescence or using the Odyssey machine and quantified (FIGS. 12, 15, 16, 7 and 11).\nSince the melanoma cell lines are capable of undergoing autophagy and sensitive to autophagy inhibition, the inventors questioned whether autophagy inhibitors could improve the efficacy of, or sensitize melanoma cells against cytotoxic and chemotherapeutic drugs for advanced metastatic melanoma. In one example, PLX-4032 drug “vemurafenib” (marketed as ZELBORAF®) is a B-Raf enzyme inhibitor developed by Plexxikon and Genentech for the treatment of late-stage melanoma. The name “vemurafenib” comes from V600E mutated BRAF inhibition. PLX-4032, selectively targets the V600E mutant BRAF and it is unknown how this drug may affect autophagic flux. To determine the effects of the drug on autophagic flux, the present inventors performed experiments to determine whether PLX-4032 induces autophagy, as has been observed with other targeted agents. In some embodiments, the accumulation of LC3-II in response to lysosome inhibition was measured by quantitative Western blotting, as described above. A375 cells were treated with PLX-4032 (10 nM, 100 nM, and 1 μM) for three hours in the presence or absence of CQ."}, "A375 cells": {"tested_on": "A375 cells", "type": "cell-based, human", "conditions": "A375 soft agar", "text": "After three weeks of treatment, cells were fixed and stained in 1% paraformaldehyde in 1×PBS containing 0.005% crystal violet overnight. Cells were destained with multiple washes of 1×PBS to remove background staining. Plates were scanned and images quantified using Nikon NIS Elements software. To quantify, each image was sharpened and an ROI of equal size drawn around each well. Intensity thresholds were set to include all pixels equal to or greater than the intensity of the mean background fluorescence. Objects within the threshold of each ROI were quantified using an automated object count function and exported for analysis. Object number was quantified to denote total colony formation. […] Additivity was established when the expected viability determined by the Bliss independence model was equal to the actual viability. This model was chosen since the effects of both compounds are mutually non-exclusive and follow first order Michaelis-Menten kinetics.\nTo determine if the effects of each combination were more than, less than, or equal to additive, predictions for additivity were made using the Bliss Independence (Table 7), as disclosed in Yan H, Zhang B, Li S, Zhao Q. A formal model for analyzing drug combination effects and its application in TNF-alpha-induced NFkappaB pathway. BMC Syst. […] Drug combination studies and their synergy quantification using the Chou-Talalay method."}, "[13]": {"tested_on": "metastatic melanoma with BRAF V600E mutation", "conditions": "metastatic melanoma patients with the mutation; in one study; cited from earlier work"}, "L6 cells": {"tested_on": "L6 cells", "experiment": "In vitro cytotoxicity (LD50), Alamar Blue", "type": "cell-based", "conditions": "Rattus norvegicus, L6, read-out: L6 IC50", "description": "L6 cells were seeded at 4×10^4 cells per well in a 96-well microtiter plate with each well containing 100 μL of RPMI 1640 medium, supplemented with 1% L-glutamine (200 mM), and 10% fetal bovine serum. Serial drug dilutions of Example 7 and Example 27 with seven 3-fold dilution steps, covering a range from 90 to 0.12 μg/mL, were prepared. After 72 h of incubation, the plates were inspected under an inverted microscope to ensure growth of the controls and sterile conditions. Alamar Blue (10 μL, 12.5 mg of resazurin dissolved in 100 mL of double-distilled water) was then added to each well, and the plates were incubated for another 2 hours. Plates were read with a microplate fluorometer using an excitation wavelength of 536 nm and an emission wavelength of 588 nm. Data were analyzed using microplate reader software. Podophyllotoxin was used as a standard (L6 IC50=0.04 μg/mL).\nNext, the inventors wanted to determine if there is a therapeutic window for Example 7 and Example 27 in the treatment of P. falciparum. A therapeutic window for P. falciparum treatment is defined as a 10-fold differential between the in vitro cytotoxicity (LD50) within a mammalian cell line and the antimalarial IC50 (LD50/IC50) as defined by the MMV. Using the rat skeletal muscle L6 mammalian cell line, dose-response curves for Example 7 and Example 27 were performed and the LD50 determined."}}, "data": [{"smiles": "COc1ccc2nc3cc(Cl)ccc3c(NCCCCN(C)CC3CC3)c2c1", "note": "[Example 10, N^1-(6-Chloro-2-methoxyacridin-9-yl)-N^4-(cyclopropylmethyl)-N^4-methylbutane-1,4-diamine]", "values": [{"measurement": "tumor cell growth inhibition", "setting": "[1]", "value": "more than 75%"}, {"measurement": "increase in tumor growth inhibition in combination than Example 10 alone", "setting": "[2]; in combination with PLX-4032, FIGS. 4A, 4C", "value": "2.6-3.25%"}, {"measurement": "increase in tumor growth inhibition in combination than Example 10 alone", "setting": "[2]; in combination with Temozolomide, FIGS. 4B, 4D", "value": "7-30%"}, {"measurement": "tumor growth inhibition", "setting": "[3]", "value": "greater than 50%"}]}, {"smiles": "CCCS(=O)(=O)Nc1ccc(F)c(C(=O)c2c[nH]c3ncc(-c4ccc(Cl)cc4)cc23)c1F", "note": "[PLX-4032, N-[3-[5-(4-chlorophenyl)-1H-pyrrolo[2,3-b]pyridine-3-carbonyl]-2,4-difluorophenyl]propane-1-sulfonamide, reference compound]", "values": [{"measurement": "IC50", "setting": "A375 melanoma cell line", "value": 1, "unit": "µM"}, {"measurement": "IC50", "setting": "[4]", "value": 0.6, "unit": "µM"}, {"measurement": "IC50", "setting": "[5]", "value": 4, "unit": "µM"}, {"measurement": "IC50", "setting": "[6]", "value": 4.2, "unit": "µM"}, {"measurement": "IC50", "setting": "[7]", "value": 69, "unit": "µM"}, {"measurement": "IC50", "setting": "[8]", "value": 0.6, "unit": "µM"}, {"measurement": "IC50", "setting": "[9]", "value": 3.3, "unit": "µM"}, {"measurement": "IC50", "setting": "[10]", "value": 19.3, "unit": "µM"}, {"measurement": "IC50", "setting": "[11]", "value": 1.5, "unit": "µM"}, {"measurement": "phosphorylation of ERK1/2 (oncogenic BRAF signaling)", "setting": "[12]; 10 nM, 100 nM, 1 μM for three hours", "value": "reduced phosphorylation"}, {"measurement": "autophagy / basal autophagic flux (LC3-II)", "setting": "[12]; three hours, in the presence or absence of lysosome inhibitors", "value": "not significantly altered"}, {"measurement": "Relative Growth Inhibition Compound B", "setting": "A375 cells; single compound at IC10", "value": 0.19}, {"measurement": "IC10 concentration", "setting": "A375 cells; treated every other day for three weeks, single agent", "value": 0.0013, "unit": "µM"}, {"measurement": "response rate", "setting": "[13]", "value": 70, "unit": "%"}]}, {"smiles": "COc1cc([C@@H]2c3cc4c(cc3[C@H](O)[C@H]3COC(=O)[C@H]23)OCO4)cc(OC)c1OC", "note": "[Podophyllotoxin]", "values": [{"measurement": "IC50", "setting": "L6 cells", "value": 0.04, "unit": "µg/mL"}]}]}
